Laboratory results published in ChEMBL document CHEMBL3885861, “Open TG-GATES”.

Organism: Rattus norvegicus
Test: Open TG-GATES - Regimen: Single
Type: toxicity, organism-based, Sprague-Dawley
Set-up: regimen Single, gender Male, age 6 weeks
Conditions: in vivo, po, 0 mg/kg, route gavage, dose level Control; for APTT / Bas / Eos / Fbg / Hb / Ht / Lym / MCH / MCHC / MCV / Mono / Neu / PT / Plat / RBC / Ret / WBC: tissue Blood; for KIDNEY_L / KIDNEY_R / KIDNEY_TOTAL: tissue Kidney; for LIVER: tissue Liver; for A/G / ALP / ALT / AST / BUN / CRE / Ca / Cl / DBIL / GLC / IP / K / LDH / Na / PL / RALB / TBIL / TC / TG / TP / gamma-GTP: tissue Plasma

Structure (SMILES): O=C(O)COc1nn(Cc2ccccc2)c2ccccc12 [BENDAZAC]
- TERMINAL_BW (3 h): 211 g
- APTT (3 h): 17.2 s
- Bas (3 h): 0%
- Eos (3 h): 0.8%
- Fbg (3 h): 208.8 mg/dL
- Hb (3 h): 13.6 g/dL
- Ht (3 h): 40.7%
- Lym (3 h): 77.2%
- MCH (3 h): 21.7 pg
- MCHC (3 h): 33.3%
- MCV (3 h): 65.1 fL
- Mono (3 h): 10.4%
- Neu (3 h): 12%
- PT (3 h): 11.2 s
- Plat (3 h): 119 x10_4/uL
- RBC (3 h): 625 x10_4/ul
- Ret (3 h): 8.9%
- WBC (3 h): 108.6 x10_2/uL
- KIDNEY_L (3 h): 0.9 g
- KIDNEY_R (3 h): 1 g
- KIDNEY_TOTAL (3 h): 1.9 g
- LIVER (3 h): 10 g
- A/G (3 h): 2.2
- ALP (3 h): 955 IU/L
- ALT (3 h): 37.2 IU/L
- AST (3 h): 65.8 IU/L
- BUN (3 h): 12.4 mg/dL
- CRE (3 h): 0.5 mg/dL
- Ca (3 h): 10.9 mg/dL
- Cl (3 h): 103.8 meq/L
- DBIL (3 h): 0.008 mg/dL
- GLC (3 h): 199.4 mg/dL
- IP (3 h): 8.2 mg/dL
- K (3 h): 4.5 meq/L
- LDH (3 h): 89.4 IU/L
- Na (3 h): 139.8 meq/L
- PL (3 h): 145.4 mg/dL
- RALB (3 h): 3.7 g/dL
- TBIL (3 h): 0.3 mg/dL
- TC (3 h): 81 mg/dL
- TG (3 h): 67 mg/dL
- TP (3 h): 5.4 g/dL
- gamma-GTP (3 h): 1 IU/L
- TERMINAL_BW (6 h): 209.6 g
- APTT (6 h): 17.5 s
- Bas (6 h): 0%
- Eos (6 h): 0.8%
- Fbg (6 h): 200.2 mg/dL
- Hb (6 h): 13.9 g/dL
- Ht (6 h): 41.5%
- Lym (6 h): 77.2%
- MCH (6 h): 21.6 pg
- MCHC (6 h): 33.4%
- MCV (6 h): 64.7 fL
- Mono (6 h): 8.4%
- Neu (6 h): 13.4%
- PT (6 h): 11.7 s
- Plat (6 h): 123 x10_4/uL
- RBC (6 h): 642.4 x10_4/ul
- Ret (6 h): 10%
- WBC (6 h): 96.6 x10_2/uL
- KIDNEY_L (6 h): 1 g
- KIDNEY_R (6 h): 1 g
- KIDNEY_TOTAL (6 h): 2 g
- LIVER (6 h): 9.4 g
- A/G (6 h): 2.2
- ALP (6 h): 801.4 IU/L
- ALT (6 h): 33.2 IU/L
- AST (6 h): 59.8 IU/L
- BUN (6 h): 11.6 mg/dL
- CRE (6 h): 0.5 mg/dL
- Ca (6 h): 10.7 mg/dL
- Cl (6 h): 105.6 meq/L
- DBIL (6 h): 0.054 mg/dL
- GLC (6 h): 186.8 mg/dL
- IP (6 h): 9.6 mg/dL
- K (6 h): 4.8 meq/L
- LDH (6 h): 75.2 IU/L
- Na (6 h): 140.8 meq/L
- PL (6 h): 135.6 mg/dL
- RALB (6 h): 3.6 g/dL
- TBIL (6 h): 0.5 mg/dL
- TC (6 h): 72.6 mg/dL
- TG (6 h): 75.8 mg/dL
- TP (6 h): 5.2 g/dL
- gamma-GTP (6 h): 2 IU/L
- TERMINAL_BW (9 h): 211.9 g
- APTT (9 h): 16.6 s
- Bas (9 h): 0%
- Eos (9 h): 1.2%
- Fbg (9 h): 206.4 mg/dL
- Hb (9 h): 13.5 g/dL
- Ht (9 h): 40.3%
- Lym (9 h): 76.8%
- MCH (9 h): 22 pg
- MCHC (9 h): 33.5%
- MCV (9 h): 65.8 fL
- Mono (9 h): 9.6%
- Neu (9 h): 12.8%
- PT (9 h): 11.8 s
- Plat (9 h): 107.3 x10_4/uL
- RBC (9 h): 613.4 x10_4/ul
- Ret (9 h): 10.7%
- WBC (9 h): 98.1 x10_2/uL
- KIDNEY_L (9 h): 1 g
- KIDNEY_R (9 h): 1 g
- KIDNEY_TOTAL (9 h): 2 g
- LIVER (9 h): 9 g
- A/G (9 h): 2.1
- ALP (9 h): 700.2 IU/L
- ALT (9 h): 30 IU/L
- AST (9 h): 64.4 IU/L
- BUN (9 h): 10.8 mg/dL
- CRE (9 h): 0.6 mg/dL
- Ca (9 h): 10.6 mg/dL
- Cl (9 h): 106 meq/L
- DBIL (9 h): 0.056 mg/dL
- GLC (9 h): 197.2 mg/dL
- IP (9 h): 9.9 mg/dL
- K (9 h): 4.6 meq/L
- LDH (9 h): 75 IU/L
- Na (9 h): 143 meq/L
- PL (9 h): 134.4 mg/dL
- RALB (9 h): 3.7 g/dL
- TBIL (9 h): 0.4 mg/dL
- TC (9 h): 73.4 mg/dL
- TG (9 h): 44.2 mg/dL
- TP (9 h): 5.5 g/dL
- gamma-GTP (9 h): 1.8 IU/L
- TERMINAL_BW (24 h): 229.7 g
- APTT (24 h): 17 s
- Bas (24 h): 0%
- Eos (24 h): 1%
- Fbg (24 h): 210.8 mg/dL
- Hb (24 h): 13.5 g/dL
- Ht (24 h): 39.7%
- Lym (24 h): 77.2%
- MCH (24 h): 22.2 pg
- MCHC (24 h): 34%
- MCV (24 h): 65.2 fL
- Mono (24 h): 9.6%
- Neu (24 h): 12.4%
- PT (24 h): 12 s
- Plat (24 h): 125.1 x10_4/uL
- RBC (24 h): 609.6 x10_4/ul
- Ret (24 h): 9.8%
- WBC (24 h): 103.2 x10_2/uL
- KIDNEY_L (24 h): 1 g
- KIDNEY_R (24 h): 1 g
- KIDNEY_TOTAL (24 h): 2 g
- LIVER (24 h): 10.7 g
- A/G (24 h): 2
- ALP (24 h): 978 IU/L
- ALT (24 h): 39.8 IU/L
- AST (24 h): 67.2 IU/L
- BUN (24 h): 17.8 mg/dL
- CRE (24 h): 0.6 mg/dL
- Ca (24 h): 11 mg/dL
- Cl (24 h): 104.6 meq/L
- DBIL (24 h): 0.006 mg/dL
- GLC (24 h): 194.2 mg/dL
- IP (24 h): 7.9 mg/dL
- K (24 h): 4.8 meq/L
- LDH (24 h): 80.6 IU/L
- Na (24 h): 140.4 meq/L
- PL (24 h): 144.6 mg/dL
- RALB (24 h): 3.7 g/dL
- TBIL (24 h): 0.3 mg/dL
- TC (24 h): 77.2 mg/dL
- TG (24 h): 102 mg/dL
- TP (24 h): 5.6 g/dL
- gamma-GTP (24 h): 1.2 IU/L
